Source: patent US11020371B2, “Anti-norovirus composition and utilization thereof” (YAIZU SUISANKAGAKU INDUSTRY CO., LTD., priority 2015, dated 2021)

Key:
[1] = test system: feline calicivirus; assay: Test Example 3: anti-virus activity against feline calicivirus No. 2 (concentration, with or without 25% ethanol; TCID50 on CRFK cells); type: cell-based; details: only 25% ethanol, no addition of theaflavin purified product; 60 min reaction
Description: A cytopathic effect (CPE) was observed and a 50% tissue culture infectious dose (TCID50) being an indicator of a virus infectivity titer was calculated by the Behrens-Karber method. Moreover, a virus test solution untreated with the test sample was prepared in the same procedure, and the cytopathic effect was also observed on a cell to which the virus test solution was inoculated to determine a 50% tissue culture infectious dose (log (TCID50 value)). A reduction value of the virus infectivity titer by the test sample was calculated according to the formula (1) described below.
Anti-virus activity of the test sample against feline calicivirus was examined in the same manner as in Test Example 2 except that “(4) Preparation of sample for anti-virus test” and “(6) Anti-virus test” were conducted as described below.
(4) Preparation of Sample for Anti-Virus Test
A theaflavin purified product was dissolved in dimethyl sulfoxide to be 0.717 mg/mL (low concentration), 7.17 mg/mL (medium concentration) and 71.7 mg/mL (high concentration), and the resultant material was used in the test described below.
Then, 5 μL of a feline calicivirus solution and 45 μL of the test solution were mixed, and reacted for 60 minutes.
To the reaction liquid, 450 μL of serum-free Eagle's MEM medium was added to stop the reaction. […]

[2] = test system: Murine norovirus strain S7; assay: Test Example 1: antiviral activity against murine norovirus (virus inactivation, TCID50 on RAW 264.7 cells); type: cell-based; details: log(TCID50 untreated) - log(TCID50 treated); 60 min reaction; theaflavin purified product and tannic acid 1.5 mg/mL in 25% ethanol-added medium; products A and B stock solution
From the text: [Test Method] […] Murine norovirus strain S7 was obtained and used. (2) Cell A RAW 264.7 cell being a cell line derived from a murine macrophage (ATCC (American Type Culture Collection) TIB-71) was obtained and used. […] The theaflavin-containing purified extract (hereinafter referred to as “theaflavin purified product”) obtained in Production Example 2 was used as a test sample. Moreover, as a test sample for comparison, tannic acid having nonspecific protein binding ability and also reported as to effectiveness against a norovirus, and products A and B being the existing anti-virus products were used. […] The theaflavin purified product was dissolved in dimethyl sulfoxide to be 71.7 mg/mL, and the resultant material was used in the test described below. Tannic acid was dissolved in dimethyl sulfoxide to be 169.9 mg/mL, and the resultant material was used in the test described below. […] A RAW 264.7 cell was monolayer cultured in a well of a 96-well plate, and washed twice with PBS (Phosphate Buffered Saline), and 200 μL of cell maintenance medium (2% fetal bovine serum-containing Dulbecco's Modified Eagle Medium (DMEM)) was added, and the resultant material was used in the test described below. (6) Anti-Virus Test For each test sample, a concentration was adjusted as described below, and the resultant material was applied as a test solution. […]

CCO [ethanol]
Average reduction value of virus infectivity titer [1]: 0.5

O=C(OC[C@H]1O[C@@H](OC(=O)c2cc(O)c(O)c(OC(=O)c3cc(O)c(O)c(O)c3)c2)[C@H](OC(=O)c2cc(O)c(O)c(OC(=O)c3cc(O)c(O)c(O)c3)c2)[C@@H](OC(=O)c2cc(O)c(O)c(OC(=O)c3cc(O)c(O)c(O)c3)c2)[C@@H]1OC(=O)c1cc(O)c(O)c(OC(=O)c2cc(O)c(O)c(O)c2)c1)c1cc(O)c(O)c(OC(=O)c2cc(O)c(O)c(O)c2)c1 [Tannic acid]
Reduction value of virus infectivity titer Average [2]: 0.5
